# Test results reported in article PMC6211260 (Journal of Enzyme Inhibition and Medicinal Chemistry, 2018).
# Experiments:
# [1] = test system: K-562 leukaemia cell line; assay: NCI five-dose testing; assay type: cell-based; settings: K-562
# Experimental: (§1) Screening against the cancer cell lines was carried out at the National Cancer Institute (NCI, Bethesda, Maryland, USA) applying the standard protocol of the NCI[22].
# [2] = test system: PC-3 prostate cancer cell line; assay: NCI five-dose testing; assay type: cell-based; settings: PC-3
# Experimental: as §1
# [3] = test system: HOP-92 non-small cell lung cancer cell line; assay: NCI five-dose testing; assay type: cell-based; settings: HOP-92
# Experimental: as §1
# [4] = test system: OVCAR-4 ovarian cancer cell line; assay: NCI five-dose testing; assay type: cell-based; settings: OVCAR-4
# Experimental: as §1
# [5] = test system: HT-29 colon cancer cell line; assay: NCI five-dose testing; assay type: cell-based; settings: HT-29
# Experimental: as §1
# [6] = test system: SK-MEL-5 melanoma cell line; assay: NCI five-dose testing; assay type: cell-based; settings: SK-MEL-5
# Experimental: as §1
# [7] = test system: U251 CNS cancer cell line; assay: NCI five-dose testing; assay type: cell-based; settings: U251
# Experimental: as §1
# [8] = test system: A498 renal cancer cell line; assay: NCI five-dose testing; assay type: cell-based; settings: A498
# Experimental: as §1
# [9] = test system: MDA-MB-468 breast cancer cell line; assay: NCI five-dose testing; assay type: cell-based; settings: MDA-MB-468
# Experimental: as §1
# GSK3b = target: T1, GSK3b (Homo sapiens, UniProt P49841); assay: In vitro kinase screening (Kinase HotSpot); assay type: biochemical; settings: single dose of 10 µM
# T1 construct: purchased Reaction Biology Corp
# T1 sequence (P49841 whole entry): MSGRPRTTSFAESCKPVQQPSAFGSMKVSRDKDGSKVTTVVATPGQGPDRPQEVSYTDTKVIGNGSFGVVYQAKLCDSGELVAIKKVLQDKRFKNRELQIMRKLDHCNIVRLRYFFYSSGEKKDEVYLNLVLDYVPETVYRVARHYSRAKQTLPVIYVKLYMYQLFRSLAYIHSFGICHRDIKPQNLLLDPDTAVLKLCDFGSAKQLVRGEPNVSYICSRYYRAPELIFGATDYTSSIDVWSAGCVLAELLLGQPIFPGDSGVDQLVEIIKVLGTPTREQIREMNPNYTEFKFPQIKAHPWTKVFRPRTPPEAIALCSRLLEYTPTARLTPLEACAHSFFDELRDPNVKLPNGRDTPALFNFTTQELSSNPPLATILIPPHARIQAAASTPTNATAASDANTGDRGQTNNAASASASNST
# Text: (§2) To investigate the biological target of compound, Reaction Biology Corp. Kinase HotSpotSM service was used adopting standard assay protocol.
# JNK2 = target: T2, JNK2 (Homo sapiens, UniProt P45984); assay: In vitro kinase screening (Kinase HotSpot); assay type: biochemical; settings: single dose of 10 µM
# T2 construct: purchased Reaction Biology Corp
# T2 sequence (P45984 whole entry): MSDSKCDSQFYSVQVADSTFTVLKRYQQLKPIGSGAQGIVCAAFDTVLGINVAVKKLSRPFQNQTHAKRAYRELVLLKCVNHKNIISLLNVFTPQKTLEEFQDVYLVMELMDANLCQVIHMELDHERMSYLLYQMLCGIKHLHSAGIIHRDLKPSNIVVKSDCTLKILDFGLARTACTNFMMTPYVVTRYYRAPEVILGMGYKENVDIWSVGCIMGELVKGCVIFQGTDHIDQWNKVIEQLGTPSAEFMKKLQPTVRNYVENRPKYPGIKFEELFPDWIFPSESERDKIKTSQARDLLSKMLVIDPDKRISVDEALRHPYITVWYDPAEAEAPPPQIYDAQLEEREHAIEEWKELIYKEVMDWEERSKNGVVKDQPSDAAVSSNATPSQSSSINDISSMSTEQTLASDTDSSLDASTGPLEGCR
# Text: as §2
# IKKb/IKBKB = target: T3, IKKb/IKBKB (Homo sapiens, UniProt O14920); assay: In vitro kinase screening (Kinase HotSpot); assay type: biochemical; settings: single dose of 10 µM
# T3 construct: purchased Reaction Biology Corp
# T3 sequence (O14920 1-756): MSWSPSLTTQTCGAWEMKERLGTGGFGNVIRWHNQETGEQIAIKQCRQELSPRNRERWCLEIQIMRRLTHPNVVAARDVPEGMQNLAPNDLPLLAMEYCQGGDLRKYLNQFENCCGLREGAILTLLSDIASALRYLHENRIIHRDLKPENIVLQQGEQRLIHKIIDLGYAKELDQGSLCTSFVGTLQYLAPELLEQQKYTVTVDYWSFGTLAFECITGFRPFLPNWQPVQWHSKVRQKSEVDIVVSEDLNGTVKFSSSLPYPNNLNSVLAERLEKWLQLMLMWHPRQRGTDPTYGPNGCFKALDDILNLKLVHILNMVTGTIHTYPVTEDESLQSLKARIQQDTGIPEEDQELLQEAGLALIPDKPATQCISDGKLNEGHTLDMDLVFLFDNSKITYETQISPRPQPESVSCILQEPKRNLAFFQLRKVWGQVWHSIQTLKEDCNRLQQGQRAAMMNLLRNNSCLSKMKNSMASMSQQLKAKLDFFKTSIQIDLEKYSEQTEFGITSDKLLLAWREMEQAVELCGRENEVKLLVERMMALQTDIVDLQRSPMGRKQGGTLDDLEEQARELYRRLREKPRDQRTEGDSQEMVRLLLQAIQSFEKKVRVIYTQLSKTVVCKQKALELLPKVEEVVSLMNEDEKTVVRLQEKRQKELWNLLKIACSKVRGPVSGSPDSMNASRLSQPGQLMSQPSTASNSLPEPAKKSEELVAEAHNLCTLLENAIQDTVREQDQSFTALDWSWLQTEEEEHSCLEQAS
# Text: as §2
# EGFR = target: T4, EGFR (Homo sapiens, UniProt P00533); assay: In vitro kinase screening (Kinase HotSpot); assay type: biochemical; settings: single dose of 10 µM
# T4 construct: purchased Reaction Biology Corp
# T4 sequence (P00533 25-1210): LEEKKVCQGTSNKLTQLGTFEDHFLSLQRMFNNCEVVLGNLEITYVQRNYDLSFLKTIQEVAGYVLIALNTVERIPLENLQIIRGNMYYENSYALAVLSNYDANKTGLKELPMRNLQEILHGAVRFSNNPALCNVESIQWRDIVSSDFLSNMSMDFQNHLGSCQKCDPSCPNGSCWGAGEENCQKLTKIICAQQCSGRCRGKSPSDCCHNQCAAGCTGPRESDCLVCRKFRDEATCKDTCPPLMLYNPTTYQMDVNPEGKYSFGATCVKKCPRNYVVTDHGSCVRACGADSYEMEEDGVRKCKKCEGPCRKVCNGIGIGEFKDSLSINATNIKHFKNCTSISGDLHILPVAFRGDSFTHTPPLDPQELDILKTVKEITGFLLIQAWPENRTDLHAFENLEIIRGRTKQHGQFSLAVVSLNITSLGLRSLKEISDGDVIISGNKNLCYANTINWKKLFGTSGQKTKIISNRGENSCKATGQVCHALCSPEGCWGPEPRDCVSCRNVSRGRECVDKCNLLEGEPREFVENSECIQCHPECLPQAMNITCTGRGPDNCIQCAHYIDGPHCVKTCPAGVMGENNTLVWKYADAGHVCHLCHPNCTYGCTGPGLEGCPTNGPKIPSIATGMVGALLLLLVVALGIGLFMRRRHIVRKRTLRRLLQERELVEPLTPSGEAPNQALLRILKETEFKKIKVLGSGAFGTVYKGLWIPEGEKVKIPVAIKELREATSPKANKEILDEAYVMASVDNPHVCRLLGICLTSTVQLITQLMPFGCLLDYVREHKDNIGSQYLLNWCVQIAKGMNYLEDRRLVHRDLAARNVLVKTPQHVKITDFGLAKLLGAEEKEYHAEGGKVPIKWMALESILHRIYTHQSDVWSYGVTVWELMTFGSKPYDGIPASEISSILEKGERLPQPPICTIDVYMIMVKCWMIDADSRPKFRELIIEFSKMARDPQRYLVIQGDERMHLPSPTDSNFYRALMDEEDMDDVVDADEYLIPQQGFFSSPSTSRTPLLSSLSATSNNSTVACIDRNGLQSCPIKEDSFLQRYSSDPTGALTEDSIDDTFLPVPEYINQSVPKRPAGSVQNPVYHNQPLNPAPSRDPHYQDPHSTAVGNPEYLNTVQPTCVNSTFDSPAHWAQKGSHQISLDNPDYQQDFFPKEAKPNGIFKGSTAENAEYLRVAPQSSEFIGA
# Text: as §2
# BRAF = target: T5, BRAF (Homo sapiens, UniProt P15056); assay: In vitro kinase screening (Kinase HotSpot); assay type: biochemical; settings: single dose of 10 µM
# T5 construct: purchased Reaction Biology Corp
# T5 sequence (P15056 whole entry): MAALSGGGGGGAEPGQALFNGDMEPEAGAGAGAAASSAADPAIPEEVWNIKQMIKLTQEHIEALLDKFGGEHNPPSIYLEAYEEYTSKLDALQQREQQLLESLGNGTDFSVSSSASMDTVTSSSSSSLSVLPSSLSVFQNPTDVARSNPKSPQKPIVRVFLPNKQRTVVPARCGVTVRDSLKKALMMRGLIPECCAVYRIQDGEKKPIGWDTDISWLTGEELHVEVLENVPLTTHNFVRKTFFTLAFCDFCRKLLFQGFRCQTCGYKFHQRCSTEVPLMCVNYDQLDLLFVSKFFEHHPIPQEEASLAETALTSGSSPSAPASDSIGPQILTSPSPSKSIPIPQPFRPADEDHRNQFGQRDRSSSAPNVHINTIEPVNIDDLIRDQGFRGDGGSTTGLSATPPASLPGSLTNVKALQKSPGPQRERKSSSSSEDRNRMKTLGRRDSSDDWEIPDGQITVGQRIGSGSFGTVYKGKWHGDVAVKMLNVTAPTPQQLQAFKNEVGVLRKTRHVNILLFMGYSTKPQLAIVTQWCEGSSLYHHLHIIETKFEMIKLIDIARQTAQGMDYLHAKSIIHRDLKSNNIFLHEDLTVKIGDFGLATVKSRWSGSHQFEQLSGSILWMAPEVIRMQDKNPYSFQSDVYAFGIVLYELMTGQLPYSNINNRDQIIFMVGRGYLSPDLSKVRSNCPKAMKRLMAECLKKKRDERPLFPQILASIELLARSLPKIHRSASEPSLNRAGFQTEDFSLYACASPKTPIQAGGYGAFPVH
# Text: as §2
# CDK2/cyclin E = target: T6, CDK2/cyclin E (Homo sapiens, UniProt P24941); assay: In vitro kinase screening (Kinase HotSpot); assay type: biochemical; settings: single dose of 10 µM
# T6 construct: purchased Reaction Biology Corp
# Text: as §2
# P38a/MAPK14 = target: T7, P38a/MAPK14 (Homo sapiens, UniProt Q16539); assay: In vitro kinase screening (Kinase HotSpot); assay type: biochemical; settings: single dose of 10 µM, P38a/MAPK14
# T7 construct: purchased Reaction Biology Corp
# T7 sequence (Q16539 whole entry): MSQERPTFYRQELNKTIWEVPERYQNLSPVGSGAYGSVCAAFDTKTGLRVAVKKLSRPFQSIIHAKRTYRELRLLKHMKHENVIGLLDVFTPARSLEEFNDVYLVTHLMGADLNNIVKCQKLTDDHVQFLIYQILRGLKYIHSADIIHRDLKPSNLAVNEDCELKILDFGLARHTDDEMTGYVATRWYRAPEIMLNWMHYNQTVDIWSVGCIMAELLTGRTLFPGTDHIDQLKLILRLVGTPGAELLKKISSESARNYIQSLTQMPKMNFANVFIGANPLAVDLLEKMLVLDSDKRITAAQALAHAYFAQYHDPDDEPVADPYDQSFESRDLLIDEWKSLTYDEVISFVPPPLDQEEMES
# Text: as §2
# JNK1 = target: T8, JNK1 (Homo sapiens, UniProt P45983); assay: In vitro kinase screening (Kinase HotSpot); assay type: biochemical; settings: single dose of 10 µM
# T8 construct: purchased Reaction Biology Corp
# T8 sequence (P45983 whole entry): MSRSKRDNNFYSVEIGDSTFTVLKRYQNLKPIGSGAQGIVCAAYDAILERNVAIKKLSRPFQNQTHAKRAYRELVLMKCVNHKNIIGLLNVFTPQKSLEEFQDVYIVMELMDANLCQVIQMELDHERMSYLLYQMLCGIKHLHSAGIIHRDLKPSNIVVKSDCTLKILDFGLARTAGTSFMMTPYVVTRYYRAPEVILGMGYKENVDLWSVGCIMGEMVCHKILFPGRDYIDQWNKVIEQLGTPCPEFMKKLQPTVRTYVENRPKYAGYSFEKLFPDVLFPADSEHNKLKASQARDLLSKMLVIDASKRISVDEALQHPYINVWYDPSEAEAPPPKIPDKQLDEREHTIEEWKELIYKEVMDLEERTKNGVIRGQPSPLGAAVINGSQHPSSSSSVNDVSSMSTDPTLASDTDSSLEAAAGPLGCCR
# Text: as §2
# JNK3 = target: T9, JNK3 (Homo sapiens, UniProt P53779); assay: In vitro kinase screening (Kinase HotSpot); assay type: biochemical; settings: single dose of 10 µM
# T9 construct: purchased Reaction Biology Corp
# T9 sequence (P53779 whole entry): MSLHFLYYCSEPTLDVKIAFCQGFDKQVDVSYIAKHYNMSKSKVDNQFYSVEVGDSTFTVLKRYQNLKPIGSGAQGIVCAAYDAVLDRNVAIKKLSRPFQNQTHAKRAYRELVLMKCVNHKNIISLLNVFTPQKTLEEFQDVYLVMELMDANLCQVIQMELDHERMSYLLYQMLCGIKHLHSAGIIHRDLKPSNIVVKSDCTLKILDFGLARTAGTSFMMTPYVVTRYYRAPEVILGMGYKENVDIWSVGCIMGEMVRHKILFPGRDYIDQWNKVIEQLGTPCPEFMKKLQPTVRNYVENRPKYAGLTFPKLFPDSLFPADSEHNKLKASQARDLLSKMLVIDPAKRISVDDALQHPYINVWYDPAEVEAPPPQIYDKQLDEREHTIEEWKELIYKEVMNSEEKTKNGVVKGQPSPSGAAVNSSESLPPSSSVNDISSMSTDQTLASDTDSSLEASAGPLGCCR
# Text: as §2
# BRAF (V600E) = target: T10, BRAF (V600E) (Homo sapiens, UniProt P15056, V600E); assay: In vitro kinase screening (Kinase HotSpot); assay type: biochemical; settings: single dose of 10 µM, BRAF (V599E) in Table 6, BRAF (V600E) in text
# T10 construct: purchased Reaction Biology Corp
# T10 sequence (P15056 whole entry V600E): as the sequence (P15056 whole entry) above, with V600E counted along it
# Text: as §2
# ABL1 (T315I) = target: T11, ABL1 (T315I) (Homo sapiens, UniProt P00519, T315I); assay: In vitro kinase screening (Kinase HotSpot); assay type: biochemical; settings: single dose of 10 µM
# T11 construct: purchased Reaction Biology Corp
# Text: as §2
# CNS cancer cell lines = assay: NCI five-dose testing, subpanel mean; assay type: cell-based; settings: subpanel IV: CNS cancer
# Experimental: as §1
# breast cancer cell lines = assay: NCI five-dose testing, subpanel mean; assay type: cell-based; settings: subpanel IX: breast cancer
# Experimental: as §1
# colon cancer cell lines = assay: NCI five-dose testing, subpanel mean; assay type: cell-based; settings: subpanel III: colon cancer
# Experimental: as §1
# [10] = test system: ovarian cancer cell lines; assay: NCI five-dose testing, subpanel mean; assay type: cell-based; settings: subpanel VI: ovarian cancer
# Experimental: as §1
# renal cancer cell lines = assay: NCI five-dose testing, subpanel mean; assay type: cell-based; settings: subpanel VII: renal cancer
# Experimental: as §1
# [11] = test system: non-small cell lung cancer cell lines; assay: NCI five-dose testing, subpanel mean; assay type: cell-based; settings: subpanel II: non-small cell lung cancer
# Experimental: as §1
# [12] = test system: prostate cancer cell lines; assay: NCI five-dose testing, subpanel mean; assay type: cell-based; settings: subpanel VIII: prostate cancer
# Experimental: as §1
# melanoma cell lines = assay: NCI five-dose testing, subpanel mean; assay type: cell-based; settings: subpanel V: melanoma
# Experimental: as §1
# Leukaemia cell lines = assay: NCI five-dose testing, subpanel mean; assay type: cell-based; settings: subpanel I: Leukaemia
# Experimental: as §1
# T-47D cell line = assay: NCI-60 single-dose screening; assay type: cell-based; settings: 10 µM
# Experimental: as §1
# The final target compounds were submitted to the National Cancer Institute (NCI), Maryland, USA[23]. Thirty-one compounds were selected to be tested over 60 cell lines at single dose 10 µM.
# [13] = read-out: TGI (total growth inhibition concentration)
structure (smiles),measurement,setting,value
"O=S(=O)(NCCNc1cc(-c2cn(-c3ccccc3)nc2-c2cccc(O)c2)ccn1)c1ccc(Cl)cc1 [Compound 1l, 4-Chloro-N-(2-((4-(3-(3-hydroxyphenyl)-1-phenyl-1H-pyrazol-4-yl)pyridin-2-yl)amino)ethyl) benzenesulfonamide]",IC50,[1],1980 nM
same,LD50 (lethal dose 50),[1],>100 µM
same,IC (TGI),[1]; [13],5400 nM
same,LD50 (lethal dose 50),[2],>100 µM
same,IC50,[2]; read-out: IC50,2450 nM
same,IC (TGI),[2]; [13],12000 nM
same,IC50,[3],2340 nM
same,LD50 (lethal dose 50),[3],70.5 µM
same,IC (TGI),[3]; [13],8300 nM
same,IC50,[4],4370 nM
same,LD50 (lethal dose 50),[4],>100 µM
same,IC (TGI),[4]; [13],>100000 nM
same,LD50 (lethal dose 50),[5],61.8 µM
same,IC50,[5]; read-out: IC50,2240 nM
same,IC (TGI),[5]; [13],5200 nM
same,IC50,[6],2020 nM
same,LD50 (lethal dose 50),[6],7.9 µM
same,IC (TGI),[6]; [13],4000 nM
same,LD50 (lethal dose 50),[7],45.9 µM
same,IC50,[7]; read-out: IC50,3210 nM
same,IC (TGI),[7]; [13],11400 nM
same,IC50,[8],2630 nM
same,LD50 (lethal dose 50),[8],57.1 µM
same,IC (TGI),[8]; [13],9500 nM
same,IC50,[9],2780 nM
same,LD50 (lethal dose 50),[9],>100 µM
same,IC (TGI),[9]; [13],7660 nM
same,Inhibition %,GSK3b,15.88 ± 0.21%
same,Inhibition %,JNK2,44.68 ± 0.01%
same,Inhibition %,IKKb/IKBKB,7.80 ± 0.10%
same,Inhibition %,EGFR,10.33 ± 3.40%
same,Inhibition %,BRAF,21.28 ± 0.21%
same,Inhibition %,CDK2/cyclin E,8.36 ± 0.95%
same,Inhibition %,P38a/MAPK14,68.43 ± 0.59%
same,Inhibition %,JNK1,53.79 ± 0.04%
same,Inhibition %,JNK3,35.70 ± 0.04%
same,Inhibition %,BRAF (V600E),48.09 ± 0.45%
same,Inhibition %,ABL1 (T315I),6.39 ± 0.35%
same,IC50,CNS cancer cell lines,2850 nM
same,IC50,breast cancer cell lines,2480 nM
same,IC50,colon cancer cell lines,2460 nM
same,IC50,[10],3290 nM
same,IC50,renal cancer cell lines,3180 nM
same,IC50,[11],3160 nM
same,IC50,[12],3030 nM
same,IC50,melanoma cell lines,2380 nM
same,IC50,Leukaemia cell lines,2440 nM
"COc1cccc(-c2nn(-c3ccccc3)cc2-c2ccnc(NCCCNS(=O)(=O)c3ccc(Br)cc3)c2)c1 [Compound 2b, 4-Bromo-N-(3-((4-(3-(3-methoxyphenyl)-1-phenyl-1H-pyrazol-4-yl)pyridin-2-yl)amino)propyl) benzenesulfonamide]",per cent inhibition,T-47D cell line,83.30%
